Results from ChEMBL document CHEMBL2417365, “Design, synthesis, and in vitro hMAO-B inhibitory evaluation of some 1-methyl-3,5-diphenyl-4,5-dihydro-1H-pyrazoles” (Bioorg Med Chem Lett, 2013).

Legend:
[1] = molecular target: T1, Amine oxidase [flavin-containing] A (Homo sapiens, UniProt P21397); assay: Inhibition of human recombinant microsomal MAO-A expressed in baculovirus-infected insect BTI-TN-5B1-4 cells at 100 uM assessed as p-tyramine conversion to H2O2 by fluorescence assay; conditions: for inhibition at 100 µM: BTI-TN-5B1-4, human; for inhibition (INH): human, bti-tn-5b1-4, 100 µM
T1 sequence (P21397 whole entry): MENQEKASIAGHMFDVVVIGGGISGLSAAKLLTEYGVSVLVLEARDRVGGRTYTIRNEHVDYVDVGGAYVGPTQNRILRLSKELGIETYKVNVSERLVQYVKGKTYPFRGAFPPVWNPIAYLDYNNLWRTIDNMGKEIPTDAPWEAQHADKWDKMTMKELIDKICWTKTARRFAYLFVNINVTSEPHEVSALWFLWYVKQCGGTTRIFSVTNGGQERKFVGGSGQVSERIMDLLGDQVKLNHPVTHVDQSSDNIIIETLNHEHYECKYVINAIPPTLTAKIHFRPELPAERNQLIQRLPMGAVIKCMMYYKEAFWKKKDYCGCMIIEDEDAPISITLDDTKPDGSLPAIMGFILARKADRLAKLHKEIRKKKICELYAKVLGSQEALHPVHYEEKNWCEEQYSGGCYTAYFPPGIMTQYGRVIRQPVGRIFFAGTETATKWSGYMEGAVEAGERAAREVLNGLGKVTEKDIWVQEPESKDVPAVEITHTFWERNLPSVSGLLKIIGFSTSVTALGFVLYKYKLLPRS

[2] = molecular target: T2, Amine oxidase [flavin-containing] B (Homo sapiens, UniProt P27338); assay: biochemical; assay type: cell-based, BTI-TN-5B1-4
T2 sequence (P27338 whole entry): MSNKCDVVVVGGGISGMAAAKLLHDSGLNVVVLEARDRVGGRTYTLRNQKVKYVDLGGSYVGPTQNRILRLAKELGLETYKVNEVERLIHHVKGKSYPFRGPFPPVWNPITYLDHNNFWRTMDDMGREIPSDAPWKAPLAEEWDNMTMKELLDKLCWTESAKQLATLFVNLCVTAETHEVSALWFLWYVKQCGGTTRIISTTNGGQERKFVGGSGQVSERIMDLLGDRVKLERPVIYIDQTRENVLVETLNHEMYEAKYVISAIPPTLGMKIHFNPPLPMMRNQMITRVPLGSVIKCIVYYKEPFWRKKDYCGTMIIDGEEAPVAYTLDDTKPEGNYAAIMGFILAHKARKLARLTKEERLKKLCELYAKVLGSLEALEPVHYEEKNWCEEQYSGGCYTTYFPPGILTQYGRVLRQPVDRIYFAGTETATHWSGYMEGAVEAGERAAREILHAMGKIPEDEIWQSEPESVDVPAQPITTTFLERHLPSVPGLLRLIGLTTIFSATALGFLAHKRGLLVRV
Description: Inhibition of human recombinant microsomal MAO-B expressed in baculovirus-infected insect BTI-TN-5B1-4 cells assessed as p-tyramine conversion to H2O2 by fluorescence assay

Homo sapiens = organism: Homo sapiens; assay: Selectivity index, ratio of IC50 for human MAO-A to IC50 for human MAO-B
[3] = molecular target: T1, Amine oxidase [flavin-containing] A; assay: Inhibition of human recombinant microsomal MAO-A expressed in baculovirus-infected insect BTI-TN-5B1-4 cells assessed as p-tyramine conversion to H2O2 by fluorescence assay
[4] = molecular target: T2, Amine oxidase [flavin-containing] B; assay: Inhibition of human recombinant microsomal MAO-B expressed in baculovirus-infected insect BTI-TN-5B1-4 cells at 100 uM assessed as p-tyramine conversion to H2O2 by fluorescence assay; conditions: for inhibition (INH): human, bti-tn-5b1-4, 100 µM; for inhibition at 100 µM: BTI-TN-5B1-4, human
[5] = molecular target: Amine oxidase [flavin-containing] B (Homo sapiens) (UniProt P27338); assay: Ratio of moclobemide IC50 to compound IC50 for human MAO-B
[6] = molecular target: Amine oxidase [flavin-containing] B (Homo sapiens) (UniProt P27338); assay: Ratio of iproniazid IC50 to compound IC50 for human MAO-B
[7] = molecular target: T2, Amine oxidase [flavin-containing] B; assay: Ratio of selegiline IC50 to compound IC50 for human MAO-B
[8] = molecular target: Amine oxidase [flavin-containing] B (Homo sapiens) (UniProt P27338); assay: Ratio of selegiline IC50 to compound IC50 for human MAO-B
[9] = molecular target: T1, Amine oxidase [flavin-containing] A; assay: Ratio of clorgyline IC50 to compound IC50 for human MAO-A
[10] = molecular target: T2, Amine oxidase [flavin-containing] B; assay: Ratio of clorgyline IC50 to compound IC50 for human MAO-B

IC50 [2] [nM] | Ratio IC50 (Homo sapiens) | IC50 [3] [nM] | SMILES | further results
3650 | > 27 | – | CN1N=C(c2ccc(O)cc2)CC1c1ccc(F)cc1 (stereo unspecified) | inhibition at 100 µM [1]: 40%
5780 | 2.8 | 16300 | Cc1cccc(C2CC(c3ccc(O)cc3)=NN2C)c1 (stereo unspecified) | –
– | – | – | O=C(NCCN1CCOCC1)c1ccc(Cl)cc1 [MOCLOBEMIDE] | inhibition (INH) [4]: Not Active
140 | 21 | 3000 | CN1N=C(c2ccccc2)CC1c1ccc(F)cc1 (stereo unspecified) | –
840 | 61 | 51000 | CN1N=C(c2ccccc2)CC1c1cccc(Cl)c1 (stereo unspecified) | –
3040 | > 33 | – | CN1N=C(c2ccc(O)cc2)CC1c1ccccc1F (stereo unspecified) | inhibition at 100 µM [1]: 40%
– | – | 810 | CN1N=C(c2ccc(O)cc2O)CC1c1ccc(F)cc1 (stereo unspecified) | –
2040 | 1.9 | 3980 | Cc1ccccc1C1CC(c2ccc(O)cc2O)=NN1C (stereo unspecified) | –
180 | 2.3 | 420 | CN1N=C(c2ccc(O)cc2O)CC1c1cccc(Cl)c1 (stereo unspecified) | –
– | – | – | Cc1ccc(C2CC(c3ccc(O)cc3O)=NN2C)cc1 (stereo unspecified) | inhibition at 100 µM [1]: 40%; inhibition at 100 µM [4]: 40%
300 | 3.7 | 1100 | CN1N=C(c2ccc(O)cc2O)CC1c1ccccc1Cl (stereo unspecified) | –
2640 | 4.8 | 12700 | CN1N=C(c2ccc(O)cc2)CC1c1ccc(Cl)cc1 (stereo unspecified) | –
3950 | > 25 | – | CN1N=C(c2ccccc2)CC1c1ccc(Cl)cc1 (stereo unspecified) | inhibition (INH) [1]: Not Active
60 | 30 | 1820 | CN1N=C(c2ccccc2)CC1c1cccc(F)c1 (stereo unspecified) | –
3170 | > 31 | – | CN1N=C(c2ccc(O)cc2)CC1c1cccc(F)c1 (stereo unspecified) | inhibition at 100 µM [1]: 40%
280 | 10 | 2840 | CN1N=C(c2ccccc2)CC1c1ccccc1F (stereo unspecified) | –

IC50 [2] [nM] | Ratio IC50 (Homo sapiens) | IC50 [3] [nM] | SMILES | further results
340 | 4.1 | 1390 | CN1N=C(c2ccc(O)cc2O)CC1c1ccc(Cl)cc1 (stereo unspecified) | –
120 | 14 | 1680 | CN1N=C(c2ccccc2)CC1c1ccccc1 (stereo unspecified) | –
2070 | 9 | 18700 | CN1N=C(c2ccc(O)cc2)CC1c1cccc(Cl)c1 (stereo unspecified) | –
3870 | > 26 | – | CN1N=C(c2ccc(O)cc2O)CC1c1ccccc1F (stereo unspecified) | inhibition at 100 µM [1]: 40%
9.6 | 145 | 1390 | Cc1ccc(C2CC(c3ccccc3)=NN2C)cc1 (stereo unspecified) | Ratio IC50 [5]: <= 2; Ratio IC50 [6]: <= 2; Ratio IC50 [7]: ≥ 2; Ratio IC50 [8]: <= 2; Ratio IC50 [9]: <= 2; Ratio IC50 [10]: ≥ 2
– | – | – | Cc1cccc(C2CC(c3ccc(O)cc3O)=NN2C)c1 (stereo unspecified) | inhibition at 100 µM [1]: 40%; inhibition at 100 µM [4]: 40%
1910 | 4.8 | 9130 | Cc1ccc(C2CC(c3ccc(O)cc3)=NN2C)cc1 (stereo unspecified) | –
– | – | – | CN1N=C(c2ccc(O)cc2O)CC1c1cccc(F)c1 (stereo unspecified) | inhibition (INH) [1]: Not Active; inhibition (INH) [4]: Not Active
3650 | > 27 | – | CN1N=C(c2ccccc2)CC1c1ccccc1Cl (stereo unspecified) | inhibition (INH) [1]: Not Active
– | – | – | CN1N=C(c2ccc(O)cc2O)CC1c1ccccc1 (stereo unspecified) | inhibition at 100 µM [1]: 40%; inhibition at 100 µM [4]: 40%
26800 | > 3.7 | – | CN1N=C(c2ccc(O)cc2)CC1c1ccccc1 (stereo unspecified) | inhibition at 100 µM [1]: 40%
20100 | 1.1 | 21900 | Cc1ccccc1C1CC(c2ccc(O)cc2)=NN1C (stereo unspecified) | –
110 | 30 | 3260 | Cc1ccccc1C1CC(c2ccccc2)=NN1C (stereo unspecified) | –
110 | > 909 | – | Cc1cccc(C2CC(c3ccccc3)=NN2C)c1 (stereo unspecified) | inhibition at 100 µM [1]: 40%
10400 | 1.1 | 11800 | CN1N=C(c2ccc(O)cc2)CC1c1ccccc1Cl (stereo unspecified) | –
